Measured values published in PMC4755721 (Chemical research in toxicology, 2015).
“Also recorded” adds a separate entry of the source. Like-named read-outs stand apart in the source and are kept apart here.

How the values were obtained:
[1] = tested on: S. typhimurium NM2009; test: Genotoxicity assay, induction of umu gene expression; format: cell-based, Salmonella typhimurium; conditions: for genotoxic activity (induction of umu gene expression): 0-160 µM, without P450; for cytotoxic activity: at concentrations of 80 and 160 µM, tester strain NM2009
[2] = target: T1, P450 2A6 (Homo sapiens, UniProt P11509); conditions: cited from earlier work
T1 sequence (P11509 1-494): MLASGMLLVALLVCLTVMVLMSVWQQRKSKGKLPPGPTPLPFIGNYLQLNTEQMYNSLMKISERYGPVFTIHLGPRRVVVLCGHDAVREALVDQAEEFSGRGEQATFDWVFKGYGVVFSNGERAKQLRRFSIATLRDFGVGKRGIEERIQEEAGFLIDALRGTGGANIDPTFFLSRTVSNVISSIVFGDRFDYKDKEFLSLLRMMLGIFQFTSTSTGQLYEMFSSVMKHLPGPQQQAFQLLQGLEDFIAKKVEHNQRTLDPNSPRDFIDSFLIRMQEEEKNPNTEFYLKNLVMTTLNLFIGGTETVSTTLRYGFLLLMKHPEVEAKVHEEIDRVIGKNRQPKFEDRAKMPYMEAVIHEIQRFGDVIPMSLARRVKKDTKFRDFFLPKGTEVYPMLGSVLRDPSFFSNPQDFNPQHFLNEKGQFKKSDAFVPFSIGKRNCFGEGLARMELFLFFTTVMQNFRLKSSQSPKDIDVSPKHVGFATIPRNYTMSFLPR

[3] = target: T2, P450 2A13 (Homo sapiens, UniProt Q16696); conditions: cited from earlier work
T2 sequence (Q16696 1-494): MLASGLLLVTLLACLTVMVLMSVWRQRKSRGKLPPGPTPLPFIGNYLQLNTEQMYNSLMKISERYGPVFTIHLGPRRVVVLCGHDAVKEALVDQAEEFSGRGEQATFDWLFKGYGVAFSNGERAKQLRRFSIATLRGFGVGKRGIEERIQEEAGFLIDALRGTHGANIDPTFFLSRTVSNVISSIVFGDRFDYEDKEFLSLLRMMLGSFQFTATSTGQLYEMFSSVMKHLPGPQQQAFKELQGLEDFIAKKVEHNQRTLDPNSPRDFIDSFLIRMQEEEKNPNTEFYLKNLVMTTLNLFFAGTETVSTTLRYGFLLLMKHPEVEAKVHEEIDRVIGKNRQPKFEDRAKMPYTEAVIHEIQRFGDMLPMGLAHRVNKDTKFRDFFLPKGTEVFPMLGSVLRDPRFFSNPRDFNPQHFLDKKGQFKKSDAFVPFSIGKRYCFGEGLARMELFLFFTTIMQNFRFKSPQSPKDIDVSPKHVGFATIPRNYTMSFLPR

[4] = tested on: HepG2; conditions: cited from earlier work
[5] = tested on: S. typhimurium TM677; conditions: cited from earlier work
[6] = target: T2, P450 2A13; test: Spectral binding titration with P450 2A13
[7] = tested on: Salmonella typhimurium TA1537 and TA1538; conditions: cited from earlier work
[8] = target: T1, P450 2A6; test: Spectral binding titration with P450 2A6
[9] = target: P450 3A4 (Homo sapiens, UniProt P08684); test: Spectral binding titration with P450 3A4
[10] = tested on: P450 2A6; conditions: cited from earlier work
[11] = tested on: S. typhimurium TA120; conditions: photomutagenesis assay; cited from earlier work
[12] = tested on: P450 2A13; conditions: cited from earlier work
[13] = target: T3, P450 1B1 (Homo sapiens, UniProt Q16678); test: Spectral binding titration with P450 1B1
T3 sequence (Q16678 1-543): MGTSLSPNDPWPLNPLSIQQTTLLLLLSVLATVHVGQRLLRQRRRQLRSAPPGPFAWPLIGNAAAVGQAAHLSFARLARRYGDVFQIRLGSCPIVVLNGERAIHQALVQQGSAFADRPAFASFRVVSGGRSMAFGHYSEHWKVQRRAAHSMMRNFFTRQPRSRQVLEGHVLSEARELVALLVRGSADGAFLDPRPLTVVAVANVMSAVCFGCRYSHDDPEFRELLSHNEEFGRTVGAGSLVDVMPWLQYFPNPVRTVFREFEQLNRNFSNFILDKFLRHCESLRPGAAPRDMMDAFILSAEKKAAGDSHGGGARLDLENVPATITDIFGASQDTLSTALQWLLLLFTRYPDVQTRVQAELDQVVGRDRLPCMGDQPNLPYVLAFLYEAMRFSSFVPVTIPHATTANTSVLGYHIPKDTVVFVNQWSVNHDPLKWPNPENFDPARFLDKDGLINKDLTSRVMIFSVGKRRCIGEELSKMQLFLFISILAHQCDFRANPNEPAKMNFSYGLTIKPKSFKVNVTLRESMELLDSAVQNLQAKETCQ

[14] = target: P450 2C9 (Homo sapiens, UniProt P11712); test: Spectral binding titration with P450 2C9
[15] = target: T1, P450 2A6; test: Oxidation by P450 2A6; format: in vitro ADME; conditions: 50 µM substrate, reconstituted system, LC-MS
[16] = target: T2, P450 2A13; test: Oxidation by P450 2A13; format: in vitro ADME; conditions: 50 µM substrate, reconstituted system, LC-MS
[17] = target: T4, P450 1A2 (Homo sapiens, UniProt P05177); test: Spectral binding titration with P450 1A2
T4 sequence (P05177 1-516): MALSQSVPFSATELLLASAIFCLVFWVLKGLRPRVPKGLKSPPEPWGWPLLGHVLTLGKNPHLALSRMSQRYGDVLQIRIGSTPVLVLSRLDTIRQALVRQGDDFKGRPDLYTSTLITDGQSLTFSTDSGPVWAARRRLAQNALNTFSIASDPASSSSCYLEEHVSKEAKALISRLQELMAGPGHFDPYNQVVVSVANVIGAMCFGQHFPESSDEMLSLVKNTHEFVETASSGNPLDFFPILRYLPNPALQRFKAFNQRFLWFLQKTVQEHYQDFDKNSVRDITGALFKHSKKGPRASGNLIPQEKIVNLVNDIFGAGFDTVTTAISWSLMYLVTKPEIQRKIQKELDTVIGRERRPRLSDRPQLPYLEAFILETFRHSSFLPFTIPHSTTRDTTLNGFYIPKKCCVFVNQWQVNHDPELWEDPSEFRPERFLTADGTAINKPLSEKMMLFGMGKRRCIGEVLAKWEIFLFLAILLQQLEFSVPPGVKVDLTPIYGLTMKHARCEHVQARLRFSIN

[18] = non-classifiable as to carcinogenicity to humans; cited from earlier work

P450 3A4, sequence (P08684 whole entry): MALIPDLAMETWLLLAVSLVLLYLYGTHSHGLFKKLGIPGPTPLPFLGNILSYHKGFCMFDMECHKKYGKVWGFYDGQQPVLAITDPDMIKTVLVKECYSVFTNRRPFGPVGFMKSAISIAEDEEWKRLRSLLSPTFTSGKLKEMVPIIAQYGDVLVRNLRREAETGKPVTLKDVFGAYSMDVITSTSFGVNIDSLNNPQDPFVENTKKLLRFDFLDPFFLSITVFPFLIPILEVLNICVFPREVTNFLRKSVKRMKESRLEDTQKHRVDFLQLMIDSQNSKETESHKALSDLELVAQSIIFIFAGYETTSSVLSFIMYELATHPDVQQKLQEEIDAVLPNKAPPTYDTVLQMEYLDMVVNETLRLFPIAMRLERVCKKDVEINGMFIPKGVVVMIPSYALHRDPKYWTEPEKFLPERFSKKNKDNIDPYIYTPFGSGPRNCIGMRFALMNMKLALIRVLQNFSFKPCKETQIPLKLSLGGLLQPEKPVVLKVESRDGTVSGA
P450 2C9, sequence (P11712 whole entry): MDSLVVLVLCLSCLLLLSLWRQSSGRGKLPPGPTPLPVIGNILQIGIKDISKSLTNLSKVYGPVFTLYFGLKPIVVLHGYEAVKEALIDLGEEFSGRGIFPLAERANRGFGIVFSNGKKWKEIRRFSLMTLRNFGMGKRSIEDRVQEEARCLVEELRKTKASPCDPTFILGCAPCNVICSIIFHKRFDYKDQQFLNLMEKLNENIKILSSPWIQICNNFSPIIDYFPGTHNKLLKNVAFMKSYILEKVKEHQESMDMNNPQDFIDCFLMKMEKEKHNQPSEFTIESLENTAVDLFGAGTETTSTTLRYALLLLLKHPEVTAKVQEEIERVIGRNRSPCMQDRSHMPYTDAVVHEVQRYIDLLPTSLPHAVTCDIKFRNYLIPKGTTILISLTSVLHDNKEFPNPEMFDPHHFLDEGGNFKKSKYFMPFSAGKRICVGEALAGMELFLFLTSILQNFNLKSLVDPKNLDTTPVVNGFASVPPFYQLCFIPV

SMILES	genotoxic activity (induction of umu gene expression) [1]	cytotoxic activity [1]	genotoxicity after metabolic activation with P450 2A6 and 2A13 [1]	ΔAmax / Ks ([6]; P450 2A13)	ΔAmax / Ks ([8]; P450 2A6)	Kd [9]	ΔAmax / Ks ([9]; P450 3A4)	photomutagenicity [11]	spectral changes [13]	spectral changes [14]	Kd [6]	binding spectra induced ([6]; P450 2A13)	ΔAmax ([6]; P450 2A13, ± SE)	binding spectra induced ([8]; P450 2A6)	ΔAmax ([8]; P450 2A6, ± SE)	binding spectra induced ([9]; P450 3A4)	ΔAmax ([9]; P450 3A4, ± SE)	spectral changes [17]	further results
Oc1ccc2c(cc3ccc4cccc5ccc2c3c45)c1O [benzo[a]pyrene-7,8-diol, reference compound]	–	–	–	–	–	–	–	–	–	–	–	–	–	–	–	–	–	–	umu gene expression after metabolic activation (positive control) ([1]; with P450 1B1, results not shown): induced umu gene expression
C1=Cc2cccc3cccc1c23 [acenaphthylene]	Neither these four PAHs induced umu gene expression; also recorded: none of these four chemicals showed any genotoxic activity	10-20%	negative results	0.081	0.017	13 ± 2.7 µM	0.002	weakly mutagenic	–	–	–	–	–	–	–	–	–	–	binding spectra induced [2]: Type I; binding spectra induced [3]: Type I; cytotoxicity [4]: non-cytotoxic; mutagenicity [5]: mutagenic; ΔAmax [6]: 0.050±0.004; mutagenicity [7]: non-mutagenic; ΔAmax [8]: 0.076±0.002; ΔAmax [9]: 0.030±0.002; inhibition of coumarin 7-hydroxylation activity [10]: inhibit; inhibition of coumarin 7-hydroxylation activity [12]: inhibit
c1cc2c3c(cccc3c1)C1OC21 (centres unmarked) [1,2-epoxyacenaphthene, 1,2-Epoxyacenaphthene]	Neither these four PAHs induced umu gene expression; also recorded: none of these four chemicals showed any genotoxic activity	10-20%	negative results	0.46	0.035	6.2 ± 0.87 µM	0.007	–	did not show any spectral changes	did not show any spectral changes	0.16 ± 0.03 µM	Type I	0.073 ± 0.002	Type I	0.062 ± 0.002	Type I	0.041 ± 0.002	did not show any spectral changes	further oxidation by P450 2A6 [15]: further oxidized; further oxidation by P450 2A13 [16]: to a small extent; Ks with P450 2A13 lower than with P450 2A6 ([6]; P450 2A13 vs P450 2A6): ~ 10 fold; Kd ([8]; Ks (spectral dissociation constant), P450 2A6, 1 µM P450, pH 7.4, ± SE): 1.78 ± 0.25 µM
OC1Cc2cccc3cccc1c23 (centres unmarked) [1-acenaphthenol]	Neither these four PAHs induced umu gene expression; also recorded: none of these four chemicals showed any genotoxic activity	10-20%	negative results	0.13	–	7.8 ± 2.2 µM	0.002	–	did not show any spectral changes	did not show any spectral changes	0.48 ± 0.03 µM	Type I	0.061±0.001	very weak or undetectable	–	very weak or undetectable	0.013 ± 0.001	did not show any spectral changes	–
c1cc2c3c(cccc3c1)CC2 [acenaphthene]	Neither these four PAHs induced umu gene expression	10-20%	negative results	0.15	0.055	19 ± 3.5 µM	0.002	weakly mutagenic	–	–	–	–	0.074±0.005	–	0.066±0.002	–	0.040±0.003	–	genotoxic activity (induction of umu gene expression) ([1]; listed as Acenaphthene): none of these four chemicals showed any genotoxic activity; binding spectra induced ([2]; P450 2A6): Type I; binding spectra induced ([3]; P450 2A13): Type I; cytotoxicity ([4]; human liver tumor cell lines and HepG2 in vitro): non-cytotoxic; IARC category [18]: Group 3; mutagenicity ([7]; TA1537 and TA1538): non-mutagenic; inhibition of coumarin 7-hydroxylation activity ([10]; P450 2A6): inhibit; inhibition of coumarin 7-hydroxylation activity ([12]; P450 2A13): inhibit
